Laboratory results reported in PMC5715471 (ACS chemical neuroscience, 2017).

Legend:
σ2R/Tmem97 = target: T1, σ2R/Tmem97 (Rattus norvegicus, UniProt Q5U3Y7); assay: Sigma 2 receptor competition binding with [3H]-ditolylguanidine; conditions: σ2R from rat PC12 cells
T1 sequence (Q5U3Y7 1-176): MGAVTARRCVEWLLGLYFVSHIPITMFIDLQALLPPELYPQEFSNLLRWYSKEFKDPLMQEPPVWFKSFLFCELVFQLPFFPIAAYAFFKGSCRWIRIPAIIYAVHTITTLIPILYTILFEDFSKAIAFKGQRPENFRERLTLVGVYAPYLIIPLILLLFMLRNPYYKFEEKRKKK

5HT7 = 5HT7 (Homo sapiens, UniProt P34969); assay: PDSP radioligand binding, 5HT7; conditions: 10 μM
Beta1 = Beta1 (Homo sapiens, UniProt P08588); assay: PDSP radioligand binding, Beta1; conditions: 10 μM
A7 = A7 (Rattus norvegicus, UniProt Q05941); assay: PDSP radioligand binding, A7 sourced from rodent brain; conditions: 10 μM
MOR = MOR (Homo sapiens, UniProt P35372); assay: PDSP radioligand binding, MOR; conditions: 10 μM
5HT3 = 5HT3 (Homo sapiens, UniProt P46098); assay: PDSP radioligand binding, 5HT3; conditions: 10 μM
V2 = V2 (Homo sapiens, UniProt P30518); assay: PDSP radioligand binding, V2
5HT2C = 5HT2C (Homo sapiens, UniProt P28335); assay: PDSP radioligand binding, 5HT2C; conditions: 10 μM
A2B2 = A2B2 (Rattus norvegicus, UniProt P12389+P12390); assay: PDSP radioligand binding, A2B2; conditions: 10 μM
D3 = D3 (Homo sapiens, UniProt P35462); assay: PDSP radioligand binding, D3; conditions: 10 μM
KOR = KOR (Homo sapiens, UniProt P41145); assay: PDSP radioligand binding, KOR
Alpha1a = Alpha1a (Homo sapiens, UniProt P35348); assay: PDSP radioligand binding, Alpha1a; conditions: 10 μM
5HT2A = 5HT2A (Homo sapiens, UniProt P28223); assay: PDSP radioligand binding, 5HT2A; conditions: 10 μM
5HT2B = 5HT2B (Homo sapiens, UniProt P41595); assay: PDSP radioligand binding, 5HT2B; conditions: 10 μM
D4 = D4 (Homo sapiens, UniProt P21917); assay: PDSP radioligand binding, D4; conditions: 10 μM
AMPA = assay: PDSP radioligand binding, AMPA
Alpha1d = Alpha1d (Homo sapiens, UniProt P25100); assay: PDSP radioligand binding, Alpha1d; conditions: 10 μM
Alpha1c = assay: PDSP radioligand binding, Alpha1c; conditions: 10 μM

5HT2C, sequence (P28335 33-458): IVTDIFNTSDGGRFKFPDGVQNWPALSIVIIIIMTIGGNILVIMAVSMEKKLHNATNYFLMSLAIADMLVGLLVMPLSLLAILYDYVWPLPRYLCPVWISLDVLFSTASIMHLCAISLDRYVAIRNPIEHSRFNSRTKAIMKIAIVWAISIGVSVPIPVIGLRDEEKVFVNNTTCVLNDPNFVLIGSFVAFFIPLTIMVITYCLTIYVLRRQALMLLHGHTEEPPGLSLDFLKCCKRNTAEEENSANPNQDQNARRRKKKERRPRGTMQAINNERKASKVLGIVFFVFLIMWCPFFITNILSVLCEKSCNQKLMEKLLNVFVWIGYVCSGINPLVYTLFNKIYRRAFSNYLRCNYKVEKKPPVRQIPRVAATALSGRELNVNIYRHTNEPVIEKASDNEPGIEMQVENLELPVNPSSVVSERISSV
A7, sequence (Q05941 23-502): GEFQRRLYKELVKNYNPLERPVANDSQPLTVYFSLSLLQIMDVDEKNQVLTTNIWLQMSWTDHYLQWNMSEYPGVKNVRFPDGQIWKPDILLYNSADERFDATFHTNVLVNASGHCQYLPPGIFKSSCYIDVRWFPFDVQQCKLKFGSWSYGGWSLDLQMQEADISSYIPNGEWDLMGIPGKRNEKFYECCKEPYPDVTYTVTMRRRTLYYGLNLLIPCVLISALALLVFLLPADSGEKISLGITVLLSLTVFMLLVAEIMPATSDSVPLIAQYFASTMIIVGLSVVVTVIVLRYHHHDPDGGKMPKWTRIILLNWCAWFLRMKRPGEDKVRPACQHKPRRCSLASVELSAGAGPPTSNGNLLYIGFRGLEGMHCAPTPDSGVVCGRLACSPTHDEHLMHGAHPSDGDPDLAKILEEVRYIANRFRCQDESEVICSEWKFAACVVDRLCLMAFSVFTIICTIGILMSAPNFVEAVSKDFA
Beta1, sequence (P08588 whole entry): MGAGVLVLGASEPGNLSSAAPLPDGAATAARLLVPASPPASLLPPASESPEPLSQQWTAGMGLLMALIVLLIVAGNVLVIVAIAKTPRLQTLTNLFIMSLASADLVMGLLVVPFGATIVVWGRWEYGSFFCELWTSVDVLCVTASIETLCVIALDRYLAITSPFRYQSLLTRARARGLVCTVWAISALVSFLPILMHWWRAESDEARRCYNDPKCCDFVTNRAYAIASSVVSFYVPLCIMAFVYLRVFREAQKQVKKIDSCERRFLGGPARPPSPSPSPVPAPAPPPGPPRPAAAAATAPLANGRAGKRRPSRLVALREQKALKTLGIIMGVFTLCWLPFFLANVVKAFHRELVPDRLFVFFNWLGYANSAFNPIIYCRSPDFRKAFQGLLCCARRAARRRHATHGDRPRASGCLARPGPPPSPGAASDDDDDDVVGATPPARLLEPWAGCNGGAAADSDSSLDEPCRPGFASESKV
5HT2A, sequence (P28223 whole entry): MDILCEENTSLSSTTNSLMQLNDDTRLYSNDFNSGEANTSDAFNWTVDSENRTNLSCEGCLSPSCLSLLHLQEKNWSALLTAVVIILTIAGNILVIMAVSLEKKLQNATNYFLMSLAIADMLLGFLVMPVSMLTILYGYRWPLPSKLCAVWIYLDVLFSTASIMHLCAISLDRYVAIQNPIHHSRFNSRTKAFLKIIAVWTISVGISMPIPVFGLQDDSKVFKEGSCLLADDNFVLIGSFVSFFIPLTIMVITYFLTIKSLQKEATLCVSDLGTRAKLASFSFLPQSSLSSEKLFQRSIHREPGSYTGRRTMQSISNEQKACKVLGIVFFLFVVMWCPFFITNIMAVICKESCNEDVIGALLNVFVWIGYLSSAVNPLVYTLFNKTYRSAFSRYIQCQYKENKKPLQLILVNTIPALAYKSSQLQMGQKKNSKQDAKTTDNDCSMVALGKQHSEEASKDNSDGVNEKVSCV
A2B2, sequence (P12389 28-511): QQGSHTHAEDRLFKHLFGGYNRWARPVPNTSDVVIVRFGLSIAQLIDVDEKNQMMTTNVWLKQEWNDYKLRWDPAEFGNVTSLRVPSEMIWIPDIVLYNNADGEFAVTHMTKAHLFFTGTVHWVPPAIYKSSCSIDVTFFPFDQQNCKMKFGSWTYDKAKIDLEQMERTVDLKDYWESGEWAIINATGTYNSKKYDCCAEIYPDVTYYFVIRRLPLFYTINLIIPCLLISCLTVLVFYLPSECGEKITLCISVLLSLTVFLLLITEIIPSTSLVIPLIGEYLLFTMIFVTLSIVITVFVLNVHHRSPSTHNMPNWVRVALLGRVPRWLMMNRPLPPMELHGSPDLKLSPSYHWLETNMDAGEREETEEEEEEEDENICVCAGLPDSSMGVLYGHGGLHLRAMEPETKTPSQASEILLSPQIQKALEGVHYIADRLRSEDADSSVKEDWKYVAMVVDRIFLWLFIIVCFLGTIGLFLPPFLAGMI
A2B2, sequence (P12390 25-500): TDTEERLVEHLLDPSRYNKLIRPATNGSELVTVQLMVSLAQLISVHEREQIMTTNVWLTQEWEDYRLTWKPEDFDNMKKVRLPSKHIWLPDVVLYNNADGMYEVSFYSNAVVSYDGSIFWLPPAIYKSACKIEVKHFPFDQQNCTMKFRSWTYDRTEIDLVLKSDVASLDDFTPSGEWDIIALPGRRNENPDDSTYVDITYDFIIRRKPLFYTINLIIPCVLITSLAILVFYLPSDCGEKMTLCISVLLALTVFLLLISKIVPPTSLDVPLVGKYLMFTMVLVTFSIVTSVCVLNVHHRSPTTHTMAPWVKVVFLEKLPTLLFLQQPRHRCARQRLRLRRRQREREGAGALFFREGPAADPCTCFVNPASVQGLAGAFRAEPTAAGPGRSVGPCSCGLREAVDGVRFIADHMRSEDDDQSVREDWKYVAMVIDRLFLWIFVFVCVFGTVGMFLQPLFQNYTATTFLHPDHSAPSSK
5HT7, sequence (P34969 whole entry): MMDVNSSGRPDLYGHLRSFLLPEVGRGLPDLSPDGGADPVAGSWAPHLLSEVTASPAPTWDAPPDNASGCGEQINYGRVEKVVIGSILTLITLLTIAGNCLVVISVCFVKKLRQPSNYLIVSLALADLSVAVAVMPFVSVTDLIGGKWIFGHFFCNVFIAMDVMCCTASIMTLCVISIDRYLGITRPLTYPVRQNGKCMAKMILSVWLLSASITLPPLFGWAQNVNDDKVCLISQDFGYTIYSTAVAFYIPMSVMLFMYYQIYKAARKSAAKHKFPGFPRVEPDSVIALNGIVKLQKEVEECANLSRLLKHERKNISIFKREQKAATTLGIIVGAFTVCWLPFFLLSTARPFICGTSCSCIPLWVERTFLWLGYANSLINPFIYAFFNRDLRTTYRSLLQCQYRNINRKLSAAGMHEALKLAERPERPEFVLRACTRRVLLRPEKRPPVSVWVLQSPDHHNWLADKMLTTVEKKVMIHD
Alpha1a, sequence (P35348 whole entry): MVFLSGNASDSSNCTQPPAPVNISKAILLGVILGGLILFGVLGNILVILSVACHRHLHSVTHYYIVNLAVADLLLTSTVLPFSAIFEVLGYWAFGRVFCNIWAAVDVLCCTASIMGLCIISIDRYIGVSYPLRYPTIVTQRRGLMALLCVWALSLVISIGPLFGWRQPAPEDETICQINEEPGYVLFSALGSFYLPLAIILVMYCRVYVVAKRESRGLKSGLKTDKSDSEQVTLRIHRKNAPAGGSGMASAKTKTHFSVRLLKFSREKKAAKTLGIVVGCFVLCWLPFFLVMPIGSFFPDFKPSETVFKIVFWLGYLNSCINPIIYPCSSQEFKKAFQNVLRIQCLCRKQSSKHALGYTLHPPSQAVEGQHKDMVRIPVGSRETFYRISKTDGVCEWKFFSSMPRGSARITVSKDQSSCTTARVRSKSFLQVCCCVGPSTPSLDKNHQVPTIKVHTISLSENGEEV
5HT3, sequence (P46098 24-478): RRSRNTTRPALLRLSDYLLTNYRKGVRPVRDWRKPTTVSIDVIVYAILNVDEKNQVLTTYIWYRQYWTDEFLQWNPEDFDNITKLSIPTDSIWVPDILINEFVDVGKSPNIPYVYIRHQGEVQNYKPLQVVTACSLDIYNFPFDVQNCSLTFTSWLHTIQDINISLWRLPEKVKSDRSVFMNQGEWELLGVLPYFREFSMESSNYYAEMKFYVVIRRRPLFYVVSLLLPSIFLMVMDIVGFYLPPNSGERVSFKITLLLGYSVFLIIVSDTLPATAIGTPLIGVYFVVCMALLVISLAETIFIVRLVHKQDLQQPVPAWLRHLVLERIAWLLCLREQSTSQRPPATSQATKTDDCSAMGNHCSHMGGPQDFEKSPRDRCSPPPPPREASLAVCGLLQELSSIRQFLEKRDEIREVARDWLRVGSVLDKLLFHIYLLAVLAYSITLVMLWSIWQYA
5HT2B, sequence (P41595 whole entry): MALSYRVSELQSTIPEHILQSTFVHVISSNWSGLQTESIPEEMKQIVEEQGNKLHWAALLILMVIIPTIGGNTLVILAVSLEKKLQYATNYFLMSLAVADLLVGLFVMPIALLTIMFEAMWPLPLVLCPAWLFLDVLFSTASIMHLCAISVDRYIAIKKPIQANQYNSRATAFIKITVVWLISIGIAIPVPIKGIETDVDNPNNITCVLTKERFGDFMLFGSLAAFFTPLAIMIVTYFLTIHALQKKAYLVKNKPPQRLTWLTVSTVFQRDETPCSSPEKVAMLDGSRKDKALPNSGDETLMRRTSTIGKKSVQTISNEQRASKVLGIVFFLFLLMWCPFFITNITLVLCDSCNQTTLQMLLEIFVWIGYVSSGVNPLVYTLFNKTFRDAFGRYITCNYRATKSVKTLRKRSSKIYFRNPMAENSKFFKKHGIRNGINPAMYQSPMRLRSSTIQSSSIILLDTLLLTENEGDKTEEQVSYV

## OCCCN1CCCC2CC1c1cc(-c3ccc(C(F)(F)F)cc3)ccc12 (racemic) [UKH-1114, (±)-9-(4-(Trifluoromethyl)phenyl)-3,4,5,6-tetrahydro-1,6-methanobenzo[c]azocin-2(1H)-yl)propan-1-ol]
σ2R/Tmem97
  affinity at σ2R/Tmem97 (in words): high affinity
5HT7
  inhibition of radioligand binding (Ki column, footnote a): ^a (<50% inhibition of radioligand binding at 10 μM)
Beta1
  inhibition of radioligand binding (Ki column, footnote a): ^a (<50% inhibition of radioligand binding at 10 μM)
A7
  inhibition of radioligand binding (Ki column, footnote a): ^a (<50% inhibition of radioligand binding at 10 μM)
MOR
  inhibition of radioligand binding (Ki column, footnote a): ^a (<50% inhibition of radioligand binding at 10 μM)
5HT3
  inhibition of radioligand binding (Ki column, footnote a): ^a (<50% inhibition of radioligand binding at 10 μM)
V2
  Ki: > 10 µM
5HT2C
  inhibition of radioligand binding (Ki column, footnote a): ^a (<50% inhibition of radioligand binding at 10 μM)
A2B2
  inhibition of radioligand binding (Ki column, footnote a): ^a (<50% inhibition of radioligand binding at 10 μM)
D3
  inhibition of radioligand binding (Ki column, footnote a): ^a (<50% inhibition of radioligand binding at 10 μM)
KOR
  Ki: 1.38 µM
Alpha1a
  inhibition of radioligand binding (Ki column, footnote a): ^a (<50% inhibition of radioligand binding at 10 μM)
5HT2A
  inhibition of radioligand binding (Ki column, footnote a): ^a (<50% inhibition of radioligand binding at 10 μM)
5HT2B
  inhibition of radioligand binding (Ki column, footnote a): ^a (<50% inhibition of radioligand binding at 10 μM)
D4
  inhibition of radioligand binding (Ki column, footnote a): ^a (<50% inhibition of radioligand binding at 10 μM)
AMPA
  Ki: > 10 µM
Alpha1d
  inhibition of radioligand binding (Ki column, footnote a): ^a (<50% inhibition of radioligand binding at 10 μM)
Alpha1c
  inhibition of radioligand binding (Ki column, footnote a): ^a (<50% inhibition of radioligand binding at 10 μM)
